Data as given in patent publication US7358390B2, “Polymorphic forms of nateglinide” (Teva Pharmaceutical Industries Ltd., priority 2002, dated 2008).
“Also recorded” adds a separate entry of the source.

Experiments:
[1] = Thermal stability: transformation of crystalline forms on heating or drying, form checked by XRPD; assay type: physicochemical; conditions: for crystal form obtained upon drying/heating: heating under ambient or reduced pressure, generally about 40-80° C.
Protocol: The various crystalline forms are related to each other in that drying of one form may result in a transformation to another form, namely nateglinide Forms A, B, D, E, F, G, H, I, J, K, L, M, N, Q, S, T, V, Z, α, β, δ, γ, ε, θ and Ω. The drying is carried out by heating a sample under ambient or reduced pressure. Generally, a preferred temperature is from about 40° C. to about 80° C., more preferably under reduced pressure. […] The term “stable” as used herein refers to a polymorphic change of less than about 5% by weight, more preferably less than about 2%, particularly for Form δ.
(§1) X-Ray diffraction was performed on X-Ray powder diffractometer, Scintag®, variable goniometer, Cu-tube, solid state detector. Sample holder: A round standard aluminum sample holder with round zero background quartz plate.
(§2) The sample was put on the sample holder and immediately analyzed as is. • Scanning parameters: Range: 2-40 deg 2θ, Continuos Scan, Rate: 3 deg./min. DSC: • DSC821^e Mettler Toledo®, Sample weight: 3-5 mg, Heating rate: 10° C./min, Number of holes in the crucible: 3 TGA: • Mettler TG50®, Sample weight: 7-15 mg, Heating rate: 10° C./min FTIR: • Perkin-Elmer®, Spectrum One FTIR spectrometer, Range: 4000-400 cm−1, no. of scans: 16, resolution: 4.0 cm−1, DRIFT technique.
Nateglinide Form delta (10 grams), with about 3% heptane (wt/wt), was dried in a fluidized bed drier for 4 hours at 60° C. Residual heptane was 1578 ppm af. Ethyl acetate is under detection limit. Polymorphic form of the dry product is delta.
Sample of nateglinide form U (˜1 g) was introduced into a 6-gram vial and heated over 8.5 h in a 100° C. oil bath. The vial were extracted from the bath.
Sample of nateglinide form U (˜0.5 g) was heated to 120° C. for 1 h in an atmospheric pressure.
Sample of nateglinide form δ (˜0.5 g) was heated to 120° C. for 1 h in an atmospheric pressure.
The product of example 11 was dried at 50° C. in a vacuum oven overnight, and analyzed by XRD.
Nateglinide (40 grams) Form delta (1.5% heptane) was dried in a stirred reactor (7-10 rpm) under 60 mmHg vacuum and at 60° C. After 6 hours of drying, the residual solvent of the material was 613 ppm of heptane.

[2] = Storage of crystalline forms at room temperature, form checked by XRPD; assay type: physicochemical; conditions: for crystal form after storage at RT: room temperature and pressure, open bottle, 24 h (about a day)
Protocol: The various crystalline forms are also analyzed by Thermal Gravimetric Analysis (TGA). […] In contrast to the above listed forms, TGA profiles of forms L, P, U, α, δ and σ show no significant weight loss. These polymorphic forms of nateglinide are free of bound solvents, i.e., less than about 2% LOD. Table III lists the solvents used for the preparation for nateglinide solvated forms, as well as LOD values based on TGA analysis.
Storage at room temperature and pressure may also cause a transition of one form to another.
as §1, §2

[3] = second endotherm at 138.2° C. after grinding; cited from earlier work
[4] = Exposure of NTG Form H to solvent vapors; assay type: physicochemical; conditions: 4 d, room temperature
Protocol: Nateglinide (3.50 g) was added to a polypropylene can and weighed. The can was introduced into a bigger polypropylene container containing a solvent, and stored at room temperature. The can was removed from the container and weighed (Wfinal). The can content was divided into 2 portions. One portion was dried at a temperature of 55° C. and a pressure of 20-30 mmHg to constant weight (±0.01 g).

[5] = Stability at about 40° C. and about 75% relative humidity; assay type: physicochemical; conditions: about 40° C., about 75% relative humidity, at least about 3 months
Protocol: Crystalline Form δ is stable at a temperature of about 40° C. and a relative humidity of about 75% for at least about 3 months.

[6] = 120° C., 1 h, atmospheric pressure

Q: Which “crystal form obtained upon drying/heating” value [1] does the source give for CC(C)[C@H]1CC[C@H](C(=O)N[C@H](Cc2ccccc2)C(=O)O)CC1 [Form θ, nateglinide] here?
A: Its value is “convert to Form B”.

Q: With CC(C)[C@H]1CC[C@H](C(=O)N[C@H](Cc2ccccc2)C(=O)O)CC1 [Form M, nateglinide] as the compound, how does the “crystal form obtained upon drying/heating” value [1] read?
A: Its value is “Form L”.

Q: Which results are given for CC(C)[C@H]1CC[C@H](C(=O)N[C@H](Cc2ccccc2)C(=O)O)CC1 [Form T, nateglinide]?
A: crystal form obtained upon drying/heating [1]: convert to Form B; also recorded: a mixture of Form B and G; crystal form after storage at RT [2]: converts to Form E; crystal form after storage at RT ([2]; listed as T): Form E

Q: With CC(C)[C@H]1CC[C@H](C(=O)N[C@H](Cc2ccccc2)C(=O)O)CC1 [Form N, nateglinide] as the compound, how does the “crystal form obtained upon drying/heating” value [1] read?
A: The value was “Form L”.

Q: What does the source list for CC(C)[C@H]1CC[C@H](C(=O)N[C@H](Cc2ccccc2)C(=O)O)CC1 [Form U, nateglinide]?
A: crystal form after heating (XRPD) [1, 6]: Form U; crystal form after heating (XRPD) ([1]; about 100° C. oil bath, 8.5 h): does not undergo a transition; crystal form after heating (XRPD) ([1]; about 100° C. oil bath, 8.5 h, listed as form U): Form U

Q: Which “crystal form obtained upon drying/heating” value [1] does the source give for CC(C)[C@H]1CC[C@H](C(=O)N[C@H](Cc2ccccc2)C(=O)O)CC1 [acetonitrile solvate of Form Epsilon, nateglinide] here?
A: Its value is “Form B”.

Q: With CC(C)[C@H]1CC[C@H](C(=O)N[C@H](Cc2ccccc2)C(=O)O)CC1 [Form F, nateglinide] as the compound, how does the “crystal form obtained upon drying/heating” value [1] read?
A: Its value is “convert to Form B; also recorded: a mixture of Form B and G”.

Q: What does the source list for CC(C)[C@H]1CC[C@H](C(=O)N[C@H](Cc2ccccc2)C(=O)O)CC1 [Form A, nateglinide]?
A: crystal form obtained upon drying/heating [1]: convert to Form B; crystal form after storage at RT [2]: partially converts to Form B; crystal form after storage at RT ([2]; listed as A): conversion to Form B

Q: What does the source list for CC(C)[C@H]1CC[C@H](C(=O)N[C@H](Cc2ccccc2)C(=O)O)CC1 [Form I, nateglinide]?
A: crystal form after storage at RT [2]: converts to Form L; crystal form after storage at RT ([2]; listed as I): Form L

Q: Which “crystal form obtained upon drying/heating” value [1] does the source give for CC(C)[C@H]1CC[C@H](C(=O)N[C@H](Cc2ccccc2)C(=O)O)CC1 [Form ε, nateglinide] here?
A: Its value is “Form H”.

Q: For CC(C)[C@H]1CC[C@H](C(=O)N[C@H](Cc2ccccc2)C(=O)O)CC1 [Form B, nateglinide], which “stability during grinding (DSC)” value [3] is on record?
A: The value was “unstable and susceptible to change”.

Q: Which “crystal form obtained upon drying/heating” value [1] does the source give for CC(C)[C@H]1CC[C@H](C(=O)N[C@H](Cc2ccccc2)C(=O)O)CC1 [Form Z, nateglinide] here?
A: Its value is “convert to Form B”.

Q: Which “crystal form obtained upon drying/heating” value [1] does the source give for CC(C)[C@H]1CC[C@H](C(=O)N[C@H](Cc2ccccc2)C(=O)O)CC1 [Form G, nateglinide] here?
A: Its value is “convert to Form B”.

Q: What does the source list for CC(C)[C@H]1CC[C@H](C(=O)N[C@H](Cc2ccccc2)C(=O)O)CC1 [Form H, nateglinide]?
A: Form wet after exposure to solvent vapors ([4]; Acetone vapors): stable; Form wet after exposure to solvent vapors ([4]; Water vapors): stable

Q: Which “crystal form obtained upon drying/heating” value [1] does the source give for CC(C)[C@H]1CC[C@H](C(=O)N[C@H](Cc2ccccc2)C(=O)O)CC1 [Form Q, nateglinide] here?
A: Its value is “convert to Form B”.

Q: And the “crystal form after storage at RT” value [2]?
A: Its value is “converts to Form Y”.

Q: What about the “crystal form after storage at RT” value ([2]; listed as Q) of the same compound?
A: Its value is “Form Y, which contains”.

Q: With CC(C)[C@H]1CC[C@H](C(=O)N[C@H](Cc2ccccc2)C(=O)O)CC1 [Form J, nateglinide] as the compound, how does the “crystal form obtained upon drying/heating” value [1] read?
A: The value was “convert to Form B; also recorded: Form B or β”.

Q: What about the “XRD pattern after storage at RT” value ([2]; RT, overnight) of the same compound?
A: Its value is “changed after storage at RT”.

Q: For CC(C)[C@H]1CC[C@H](C(=O)N[C@H](Cc2ccccc2)C(=O)O)CC1 [Form V, nateglinide], which “crystal form obtained upon drying/heating” value [1] is on record?
A: Its value is “Form H”.

Q: Which “crystal form obtained upon drying/heating” value [1] does the source give for CC(C)[C@H]1CC[C@H](C(=O)N[C@H](Cc2ccccc2)C(=O)O)CC1 [Form E, nateglinide] here?
A: The value was “convert to Form B”.

Q: Which “crystal form obtained upon drying/heating” value [1] does the source give for CC(C)[C@H]1CC[C@H](C(=O)N[C@H](Cc2ccccc2)C(=O)O)CC1 [nitromethane solvates of Form Epsilon, nateglinide] here?
A: The value was “Forms H or P”.

Q: Which “crystal form obtained upon drying/heating” value [1] does the source give for CC(C)[C@H]1CC[C@H](C(=O)N[C@H](Cc2ccccc2)C(=O)O)CC1 [Form β, nateglinide] here?
A: The value was “convert to Form B”.

Q: For CC(C)[C@H]1CC[C@H](C(=O)N[C@H](Cc2ccccc2)C(=O)O)CC1 [Form C, nateglinide], which “crystal form obtained upon drying/heating” value [1] is on record?
A: The value was “convert to Form B; also recorded: Form B or α”.

Q: Which “crystal form after drying (XRD)” value ([1]; 50° C., vacuum oven, overnight) does the source give for CC(C)[C@H]1CC[C@H](C(=O)N[C@H](Cc2ccccc2)C(=O)O)CC1 [Form Ω, nateglinide] here?
A: Its value is “mixture of Form omega and Form Z”.

Q: And the “crystal form obtained upon drying/heating” value [1]?
A: Its value is “convert to Form B”.

Q: With CC(C)[C@H]1CC[C@H](C(=O)N[C@H](Cc2ccccc2)C(=O)O)CC1 [Form δ, nateglinide] as the compound, how does the stability on storage [5] read?
A: Its stability on storage is “stable”.

Q: What about the stability when heated ([1]; 60° C. overnight (at least about 8 hours)) of the same compound?
A: Its stability when heated is “stable”.

Q: And the “crystal form after heating (XRPD)” value [1, 6]?
A: The value was “Form B”.

Q: And the “crystal form after heating (XRPD)” value ([1]; 120° C., 1 h, atmospheric pressure, listed as form δ)?
A: Its value is “Form B”.

Q: And the “polymorphic form after drying” value ([1]; fluidized bed drier, 4 hours, 60° C.)?
A: The value was “delta”.

Q: What about the “crystal form obtained upon drying/heating” value [1] of the same compound?
A: The value was “convert to Form B”.

Q: What about the polymorph after drying ([1]; stirred reactor (7-10 rpm), 60 mmHg vacuum, 60° C., 6 hours) of the same compound?
A: Its polymorph after drying is “remained delta form”.
